Legend:
[1] = Chlorhexidine release from HEMA-UDMA resin discs, with or without ultrasound; type: physicochemical; conditions: no ultrasound, within 65 hours
Method: HEMA-UDMA resin was prepared by mixing 64% urethane dimethacrylate (UDMA) (Esschem UK, Lot: 591-22) and 36% hydroxyethyl methacrylate (HEMA) (Aldrich, 128635, Lot: STBC7495V), 0.08% of N,N-dimethyl-P-toluidine (Acros Organics, Lot: A0207283001) and 0.05% dimethylamino ethyl methacrylate (Aldrich, 234907, Lot: BCBF8391V) were added. The mixture was then stirred for 15 min (800 rpm, VWR Stirrer, USA). Finally, camphorquinone (Aldrich, 12, 489-3, Lot: 2338141) was added at the proportion of 0.1%. The mixture was stirred for another 15 min (VWR Stirrer, USA), and then the viscous liquid resin was prepared. Freeze dried chlorhexidine chloride compounds produced in Example 2 (precipitated with 0.33 M CaCl2) were weighed and incorporated within the resin at a loading level of 5% by weight. To explore the effect of different morphology on the release kinetics, chlorhexidine compounds with spherical, needle and flake morphology (from Example 1, FIG. 1, panels (b) and (c)) were incorporated into the resin. Incorporation of the chlorhexidine compounds within the resin was carried out by rotating the mixture contained in a 1 ml tube for 15 s in a Rotomix (120V/60 Hz, 2850 rotations/min) (ESPE RotoMix, USA). Chlorhexidine diacetate was also incorporated in the prepared resin in the same way, with loading rates of 5%, 10% and 15% (weight %). The filled resin was then placed into a Teflon mould (10 mm in diameter ×2 mm thick) and cured through a Mylar film with a curing light (Bluedent LED pen, Bulgaria) (430-490 nm, 600 mW/sq·cm) for 30 s. Then the discs were next weighed on a microbalance (Salter Ander-180A weighing scale, UK), and chlorhexidine content in each disc was calculated.
For the release study, all sample resin discs (HEMA-UDMA) containing chlorhexidine chloride compounds or chlorhexidine diacetate powder prepared in Example 5 were kept in cuvettes containing 3 ml deionized water, and kept at room temperature. And at each time point, solutions were collected for UV absorption tests (Lambda 35, Perkin Elmer, USA) and replaced with fresh deionized water.
For the chlorhexidine chloride compound doped discs (Example 5) chlorhexidine content was fixed at 5%, and ultrasound was exerted. Four groups (five discs in each group) were repetitively treated with ultrasound for 0 s, 10 s, 20 s, 30 s, accordingly, by contacting the ultrasound probe (Piezon Master 400, Swiss, 60 Hz, 45VA) on the disc surface at time points of 1 h, 3 h, 5 h, 15 h, 25 h, 40 h, 65 h, 95 h, 140 h, 205 h. After that, no ultrasound was carried out for all the groups, but release was carried on until the 650 hour time point. The UDMA-HEMA discs containing needle and flake chlorhexidine compounds and chlorhexidine diacetate (FIG. 1, panels (b) and (c), and FIG. 3, panel (g)) were also tested (UV absorption tests) at the same time points (same sample numbers) but without ultrasound treatment. For the chlorhexidine diacetate powder doped discs chlorhexidine content of 5%, 10% and 15% were also analysed, and no ultrasound treatment was carried out.

[2] = Thermo-gravimetric analysis (TGA); type: physicochemical; conditions: TGA at 10° C./min in nitrogen, 50-800° C.
Method: The chlorhexidine chloride spheres (0.33M CaCl2 group) were analysed by Thermo-gravimetric analysis (TGA Q50, USA). Chlorhexidine diacetate crystals and CaCl2 powder (Sigma-Aldrich, C8106, Lot: SLBF7416V) were tested as comparisons. TGA was carried out at 10° C./min in a nitrogen atmosphere, over a temperature range of 50-800° C. The chlorhexidine proportion was further confirmed by the TGA result. […] The decomposition temperature of the chlorhexidine chloride spheres (210° C.) was higher than the chlorhexidine diacetate crystals (120° C.).

L929 cells = conditions: mouse
Method: 0.5% chlorhexidine spheres stock solution was used to prepare fresh successive dilutions in sterile deionised water to obtain the final concentrations ranging from 0.0005 to 0.25%. For controls (untreated cultures), sterile deionised water was used. 25 μl of each treatment were added into respective wells to achieve final concentrations ranging from 0.00005-0.025%.
L929 cells, a mouse fibroblast-like cell line (ECACC 85011425) were cultured in Dulbecco's Modified Eagle's Medium (DMEM; Lonza, UK) supplemented with 10% fetal bovine serum (FBS) with 100 IU/mL penicillin, 100 μg/mL streptomycin and 2 mmol/L glutamine (all from Invitrogen, UK) in an humidified incubator with 10% CO2 and 95% air at 37° C.
Cell metabolic activity was evaluated by measuring the mitochondrial activity using a method commonly known as a methyl-tetrazolium (MTT) assay. MTT assay was carried out according to the protocols outlined in ISO 1 0993-5:2009 (Biological evaluation of medical devices—Part 5: Tests for in vitro cytotoxicity).
Trypsinisation was performed by routine methods and cell suspension was counted using a haemocytometer and seeded in 96-well microtiter plates at a concentration of 10,000 cells per well. The cells were then left overnight in the incubator to adhere to the wells. Following overnight incubation, medium was removed and cells were washed twice with PBS. The cells were then treated with different concentrations of chlorhexidine spheres (0.00005-0.025%) for 24 and 48 hours. Following treatment, culture medium containing chlorhexidine spheres was removed and 50 μL of 5 mg/mL tetrazolium salt MTT (Sigma-Aldrich, Gillingham, UK) was added to each well and incubated in 37 C for 4 h. Formazan crystals generated by mitochondrial enzyme activity were dissolved by 100 μl of isopropanol and the intensity of purple coloured reaction product quantified by measuring the absorbance spectra at 570 nm. A cell viability level below 70% of control (no treatment) was regarded as the toxic concentration according to the ISO protocol.

chlorhexidine released by weight ([1]; 5% loading, deionized water, room temperature) | chlorhexidine released by weight ([1]; 10% loading) | chlorhexidine released by weight ([1]; 15% loading) | decomposition temperature [2] | Compound | cellular viability (L929 cells)
6.7% | 11.0% | 15.1% | 120 °C | CC(=O)O.CC(=O)O.NC(=N\CCCCCC/N=C(N)/N=C(\N)Nc1ccc(Cl)cc1)/N=C(\N)Nc1ccc(Cl)cc1 [chlorhexidine diacetate, Chlorhexidine diacetate, reference compound] | 
 |  |  |  | [H]/N=C(\N/C(=N/[H])NCCCCCCNC(=N)NC(=N)Nc1ccc(Cl)cc1)Nc1ccc(Cl)cc1 [chlorhexidine, N,N″″1,6-Hexanediylbis[N′-(4-chlorophenyl)(imidodicarbonimidic diamide)]] | below 10%

— patent publication US10640463B2, “Chlorhexidine crystal forms and uses thereof in medicine” (Queen Mary University of London, priority 2016, dated 2020)
